Results on 9 compounds are retold here after patent publication US20120157434A1, “Antimicrobial heterocyclic compounds for treatment of bacterial infections” (CSO of MicuRx Pharmaceuticals, Inc., priority 2007, published 2012).

Assay [1] relates to methicillin-resistant Staphylococcus aureus (MRSA). Briefly: MIC by agar dilution against a clinical isolate of MRSA. Type of assay: cell-based. From the text:
The in vitro activity of compounds of the subject invention may be assessed by standard testing procedures such as the determination of minimum inhibitory concentration (MIC) by agar dilution as described in “Approved Standard. Methods for Dilution Antimicrobial Susceptibility Tests for Bacteria that Grow Aerobically,” 3rd ed., published 1993 by the National Committee for Clinical Laboratory standards, Villanova, Pa., USA.
The in vitro MICs of test compounds may be determined by a standard agar dilution method. A stock drug solution of each analog is prepared in a preferred solvent, usually DMSO:H2O (1:3). Serial 2-fold dilutions of each sample are made using 1.0 ml aliquots of sterile distilled water. To each 1.0 ml aliquot of drug is added 9 ml of molten Mueller Hinton agar medium. The drug-supplemented agar is mixed, poured into 15×100 mm petri dishes, and allowed to solidify and dry prior to inoculation.
Vials of each of the test microorganisms are maintained frozen in the vapor phase of a liquid nitrogen freezer. Test cultures are grown overnight at 35° C. on the medium appropriate for the microorganism. Colonies are harvested with a sterile swab, and cell suspensions are prepared in Trypticase Soy broth (TSB) to equal the turbidity of a 0.5 McFarland standard. A 1:20 dilution of each suspension is made in TSB. The plates containing the drug supplemented agar are inoculated with a 0.001 ml drop of the cell suspension using a Steers replicator, yielding approximately 10^4 to 10^5 cells per spot. The plates are incubated overnight at 35° C.
Following incubation the Minimum Inhibitory Concentration (MIC μg/ml), the lowest concentration of drug that inhibits visible growth of the microorganism, is read and recorded.
Compounds of this invention can have useful activity against a variety of pathogenic microorganisms. The in vitro activity of compounds of this invention can be assessed by standard testing procedures such as the determination of minimum inhibitory concentration (MIC) by agar dilution as described in “Approved Standard. Methods for Dilution Antimicrobial Susceptibility Tests for Bacteria That Grow Aerobically”, 3rd. ed., published 1993 by the National Committee for Clinical Laboratory Standards, Villanova, Pa., USA. Minimum inhibitory concentration (MIC) refers to the lowest concentration of drug (μg/mL) that inhibits visible growth of the organism. Lower MIC values indicate a higher antibacterial activity. […] The activity of compounds of present invention against a clinical isolate of methicillin-resistant Staphylococcus aureus (MRSA; from the Massachusetts General Hospital, USA) is exemplified by the MIC data of Table 1.

For assay [2], the target named is T1, Human monoamine oxidase (MOA) A type enzyme (Homo sapiens, UniProt P21397).
T1 sequence (P21397 1-527): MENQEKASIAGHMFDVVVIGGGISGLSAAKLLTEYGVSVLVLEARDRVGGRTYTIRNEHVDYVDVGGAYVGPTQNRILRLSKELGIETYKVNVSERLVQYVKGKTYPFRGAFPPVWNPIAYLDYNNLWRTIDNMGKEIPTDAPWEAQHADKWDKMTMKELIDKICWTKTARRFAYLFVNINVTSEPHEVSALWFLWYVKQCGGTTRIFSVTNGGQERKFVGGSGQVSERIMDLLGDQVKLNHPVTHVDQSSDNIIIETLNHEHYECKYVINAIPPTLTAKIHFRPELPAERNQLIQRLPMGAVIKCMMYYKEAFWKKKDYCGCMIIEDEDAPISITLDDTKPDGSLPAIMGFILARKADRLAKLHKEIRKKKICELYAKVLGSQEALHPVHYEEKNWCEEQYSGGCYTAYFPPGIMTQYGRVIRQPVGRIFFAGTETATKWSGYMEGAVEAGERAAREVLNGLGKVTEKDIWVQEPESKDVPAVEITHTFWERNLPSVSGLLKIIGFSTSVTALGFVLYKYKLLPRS
Nature of the assay: MAO A inhibition, MAO-Glo assay kit (Promega). Format: biochemical. The conditions noted are these: luminogenic substrate; for IC50: read-out: MAO-I IC50, μg/mL (converted). The procedure:
Human monoamine oxidase (MOA) A type enzyme inhibition activity for select compounds was measured using a commercial MAO assay kit MAO-Glo™ from Promega Co. (USA). The assay was performed as described in the company's technical bulletin MAOGlo™ Assay”. The protocol involves an incubation of the MAO A enzyme with a luminogenic MAO substrate to produce an enzymatic product which is converted to luciferin by a coupled reaction. The released luciferin undergoes further transformation to generate light that is detected and measured. The amount of the light is directly proportional to the activity of MAO. Percent inhibition at several concentrations is established relative to the uninhibited control rate, and the IC50 values are calculated. […] The MAO inhibition data for select compound of this invention are illustrated in the Table 1.

The mark [3] stands for this setting: clinical isolate of methicillin-resistant Staphylococcus aureus (Massachusetts General Hospital, USA), agar dilution, read-out: MRSA, MIC.
The mark [4] stands for this setting: Staphylococcus aureus, read-out: MRSA, MIC, μg/mL.

In brackets after ≈: the same amount, converted by molar mass. Where two headings read alike, the source gives them in different places.

In the case of `CC(=O)NC[C@@H]1OC(=O)N2c3ccc(-c4ccc(-n5cnnn5)nc4)cc3C[C@@H]12` [Example 4, N-(((1S,9aS)-7-(6-(1H-tetrazol-1-yl)pyridin-3-yl)-3-oxo-1,3,9,9a-tetrahydrooxazolo[3,4-a]indol-1-yl)methyl)acetamide], the MIC in assay [1] (setting [3]) was 0.5 µg/mL (≈ 1.28 µM). The IC50 in assay [2] was 353 µM. Turning to `CC(=O)NC[C@H]1CN(c2ccc(N3CCOCC3)c(F)c2)C(=O)O1` [Linezolid, linezolid, reference compound], in assay [1] (setting [3]), the MIC came to 2 µg/mL (≈ 5.93 µM). Further, the “MAO-I IC50” value in assay [2] came to 5 µg/mL.

Turning to `CC(=O)NC[C@@H]1OC(=O)N2c3ccc(-c4ccc(C(=O)Cn5ccnc5)nc4)cc3C[C@@H]12` [Example 11, N-(((1S,9aS)-7-(6-(2-(1H-imidazol-1-yl)acetyl)pyridin-3-yl)-3-oxo-1,3,9,9a-tetrahydrooxazolo[3,4-a]indol-1-yl)methyl)acetamide], the MIC in assay [1] (setting [4]) came out at 1 µg/mL (≈ 2.32 µM). Further, the IC50 in assay [2] was greater than 232 µM. In the case of `CC(=O)NC[C@@H]1OC(=O)N2c3ccc(-c4ccc(N5CCOC5=O)nc4)cc3C[C@@H]12` [Example 3, N-(((1S,9aS)-3-oxo-7-(6-(2-oxooxazolidin-3-yl)pyridin-3-yl)-1,3,9,9a-tetrahydrooxazolo[3,4-a]indol-1-yl)methyl)acetamide], in assay [1] (setting [4]), the MIC came out at 0.25 µg/mL (≈ 0.612 µM). Turning to `CC(=O)NC[C@@H]1OC(=O)N2c3ccc(-c4ccc(-c5nnnn5C)nc4)cc3C[C@@H]12` [Example 2, N-(((1S,9aS)-7-(6-(1-methyl-1H-tetrazol-5-yl)pyridin-3-yl)-3-oxo-1,3,9,9a-tetrahydrooxazolo[3,4-a]indol-1-yl)methyl)acetamide], in assay [1] (setting [3]), the MIC stood at 0.5 µg/mL (≈ 1.23 µM). In the case of `CC(=O)NC[C@@H]1OC(=O)N2c3ccc(-c4ccc(C5=NOC(CO)C5)nc4)cc3C[C@@H]12` (stereo partly drawn) [Example 8, N-(((1S,9aS)-7-(6-(5-(hydroxymethyl)-4,5-dihydroisoxazol-3-yl)pyridin-3-yl)-3-oxo-1,3,9,9a-tetrahydrooxazolo[3,4-a]indol-1-yl)methyl)acetamide], the MIC in assay [1] (setting [4]) came to 1 µg/mL (≈ 2.37 µM). For the compound `CC(=O)NC[C@@H]1OC(=O)N2c3ccc(-c4ccc([C@@]5(C#N)[C@@H]6CNC[C@@H]65)nc4)cc3C[C@@H]12` [Example 18, N-(((1S,9aS)-7-(6-((1R,5S,6s)-6-cyano-3-azabicyclo[3.1.0]hexan-6-yl)pyridin-3-yl)-3-oxo-1,3,9,9a-tetrahydrooxazolo[3,4-a]indol-1-yl)methyl)acetamide], the MIC in assay [1] (setting [3]) amounted to 0.5 µg/mL (≈ 1.16 µM). For the same compound, the IC50 in assay [2] was greater than 233 µM. As to `CC(=O)NC[C@@H]1OC(=O)N2c3ccc(N4Cc5cccnc5C4)cc3C[C@@H]12` [Example 6, N-(((1S,9aS)-3-oxo-7-(5H-pyrrolo[3,4-b]pyridin-6(7H)-yl)-1,3,9,9a-tetrahydrooxazolo[3,4-a]indol-1-yl)methyl)acetamide], the MIC in assay [1] (setting [3]) was 0.5 µg/mL (≈ 1.37 µM). As for `CC(=O)NC[C@@H]1OC(=O)N2c3ccc(-c4ccc(-c5nnn(C)n5)nc4)cc3C[C@@H]12` [Example 1, N-(((1S,9aS)-7-(6-(2-methyl-2H-tetrazol-5-yl)pyridin-3-yl)-3-oxo-1,3,9,9a-tetrahydrooxazolo[3,4-a]indol-1-yl)methyl)acetamide], the MIC in assay [1] (setting [4]) was determined as 0.5 µg/mL (≈ 1.23 µM).
